Columns and labels:
Pigs = assay: Number of arrhythmias on electrocardiogram in pigs after balloon occlusion of the anterior descending branch of the left coronary artery, gas inhalation (Experiment Example 1); type: in vivo; details: coronary blood flow interrupted, counted for 10 minutes of inhalation versus the preceding 10 minutes, FIG. 3
Experimental: Pigs were anesthetized with pentobarbital, and electrocardiogram measurement was performed. After tracheal intubation, an artificial respirator was connected, and respiratory management was performed. A catheter was inserted into the descending aorta from the inguinal region, a balloon was placed in the anterior descending branch of the left coronary artery, and the balloon was inflated to interrupt the blood flow. After 40 minutes, an electrocardiogram was measured without doing anything for 10 minutes, the number of arrhythmias was counted, and after that, for 10 minutes, the number of arrhythmias was counted in the same manner for a control group, a hydrogen inhalation group, a nitric oxide inhalation group, or a combination group (hydrogen and nitric oxide inhalation group) in a divided manner.
A gas inhaled by the control group was a mixed gas (oxygen concentration of 35%) of oxygen and nitrogen and containing no hydrogen or nitric oxide.

[1] = high-concentration hydrogen inhaled, gaseous hydrogen used as a gas for diving; cited from earlier work

Row | SMILES | number of arrhythmias (Pigs; mixed gas of air and hydrogen, hydrogen concentration 1.3%) | side effects [1] | number of arrhythmias (Pigs; mixed gas of air and nitric oxide, nitric oxide concentration 80 ppm)
1 | [HH] [hydrogen] | decreased | no side effects | 
2 | [N]=O [nitric oxide, reference compound] |  |  | increase

Reference: patent US20220395528A1, “AGENT FOR PREVENTING OR TREATING […] DEVICE FOR PREVENTING OR TREATING ARRHYTHMIA” (SCHOOL JURIDICAL PERSON THE KITASATO INSTITUTE, priority 2019, published 2022)
